Here are results for eleven molecules from patent publication US20260217767A1, “NOVEL A4B7 THIOETHER PEPTIDE DIMER ANTAGONISTS” (Protagonist Therapeutics, Inc., priority 2014, published 2026).

One series addresses T1, rh integrin α4β7 (Homo sapiens, UniProt P13612+P26010).
T1 construct: purchased R&D Systems 5397-A30
T1 sequence (P13612 34-977 limits assumed): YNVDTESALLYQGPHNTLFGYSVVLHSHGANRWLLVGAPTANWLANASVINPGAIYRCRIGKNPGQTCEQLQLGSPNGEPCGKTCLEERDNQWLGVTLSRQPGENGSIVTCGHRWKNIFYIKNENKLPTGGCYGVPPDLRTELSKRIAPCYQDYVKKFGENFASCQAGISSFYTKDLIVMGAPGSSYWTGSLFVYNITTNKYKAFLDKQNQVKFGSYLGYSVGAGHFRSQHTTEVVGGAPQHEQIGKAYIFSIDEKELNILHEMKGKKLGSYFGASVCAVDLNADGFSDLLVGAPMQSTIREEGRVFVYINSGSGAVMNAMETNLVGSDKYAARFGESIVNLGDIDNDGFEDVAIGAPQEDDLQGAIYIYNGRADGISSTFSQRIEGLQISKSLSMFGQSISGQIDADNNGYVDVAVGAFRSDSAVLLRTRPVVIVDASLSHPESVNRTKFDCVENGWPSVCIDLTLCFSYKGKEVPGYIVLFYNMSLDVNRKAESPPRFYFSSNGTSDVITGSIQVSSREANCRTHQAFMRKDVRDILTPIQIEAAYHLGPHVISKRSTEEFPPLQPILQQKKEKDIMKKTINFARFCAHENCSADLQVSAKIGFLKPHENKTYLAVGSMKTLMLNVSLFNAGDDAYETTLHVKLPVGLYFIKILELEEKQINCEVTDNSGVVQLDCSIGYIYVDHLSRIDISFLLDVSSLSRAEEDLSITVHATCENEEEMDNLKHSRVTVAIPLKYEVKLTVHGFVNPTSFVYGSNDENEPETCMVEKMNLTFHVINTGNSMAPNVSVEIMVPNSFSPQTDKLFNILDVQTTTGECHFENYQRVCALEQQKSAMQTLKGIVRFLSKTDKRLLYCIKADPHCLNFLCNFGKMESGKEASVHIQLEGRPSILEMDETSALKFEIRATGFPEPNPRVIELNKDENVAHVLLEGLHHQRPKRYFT
T1 sequence (P26010 20-723 limits assumed): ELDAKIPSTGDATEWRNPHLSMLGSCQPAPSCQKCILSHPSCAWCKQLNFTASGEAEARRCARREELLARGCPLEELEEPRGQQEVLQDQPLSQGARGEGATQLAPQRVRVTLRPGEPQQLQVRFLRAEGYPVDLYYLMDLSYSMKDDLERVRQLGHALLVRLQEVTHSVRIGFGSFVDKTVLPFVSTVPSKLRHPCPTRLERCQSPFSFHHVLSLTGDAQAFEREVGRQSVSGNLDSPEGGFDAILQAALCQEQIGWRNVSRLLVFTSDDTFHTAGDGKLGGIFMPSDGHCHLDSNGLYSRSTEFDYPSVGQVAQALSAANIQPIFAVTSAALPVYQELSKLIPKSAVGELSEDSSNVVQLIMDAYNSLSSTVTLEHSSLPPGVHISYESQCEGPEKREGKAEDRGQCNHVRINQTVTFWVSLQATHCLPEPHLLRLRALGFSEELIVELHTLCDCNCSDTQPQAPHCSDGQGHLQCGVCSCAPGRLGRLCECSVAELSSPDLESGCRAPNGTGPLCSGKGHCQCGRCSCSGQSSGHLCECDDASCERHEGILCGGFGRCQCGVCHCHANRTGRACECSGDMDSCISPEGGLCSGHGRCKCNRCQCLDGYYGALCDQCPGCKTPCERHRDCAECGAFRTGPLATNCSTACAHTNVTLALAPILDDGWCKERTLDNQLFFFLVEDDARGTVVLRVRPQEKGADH
In words: α4β7-MAdCAM Competition ELISA. Conditions: thioether monomer peptides, Table 6; read-out: ELISA A4B7. It counts as binding. Here is the method: α4β7-MAdCAM Competition ELISA A nickel coated plate (Pierce #15442) was coated with rh integrin α4β[…] Systems #5397-A30) at 800 ng/well and incubated at room temperature with shaking for 1 hr. The solution was then removed by shaking and blocked with assay buffer (50 mM Tris-HCl pH7.6, 150 mM NaCl, 1 mM MnCl2 or MgCl2, 0.05% Tween-20 and 0.5% BSA) at 250 ul/well. The plate was then incubated at room temperature for 1 hr. Each well was washed 3 times with wash buffer (50 mM Tris-HCl pH7.6, 100 mM NaCl, 1 mM MnCl2 or MgCl2, 0.05% Tween-20). To each well was added 25 ul of a serial dilution (3-fold dilutions in assay buffer) of peptides starting at 20 μM. 25 ul of recombinant human MAdCAM-1 (R&D Systems #6056-MC) was then added to each well at a fixed concentration 20 nM. The final starting peptide concentration was 10 μM, and the final MAdCAM-1 concentration was 10 nM. The plates were then incubated at room temperature for 1 hr to reach binding equilibrium. The wells were then washed three times with wash buffer. 50 ul of mouse anti-human IgG1-HRP (Invitrogen #A10648) diluted in 1:2000 in assay buffer was then added to each well. The wells were incubated at room temperature for 45 min with shaking. The wells were then washed 3 times with wash buffer. 100 ul of TMB were then added to each well and closely observe during development time. The reaction was stopped with 2N H2SO4 and absorbance was read at 450 nm.
(In general: ELISA stands for enzyme-linked immunosorbent assay.)

A short description of series [1]: Simulated Intestinal Fluid (SIF) Stability Assay. Conditions: pig, 37° C., monomers, Table 6; for half-life at 22 μM: simulated intestinal fluid (SIF) with 1% porcine pancreatin, pH 6.5, porcine pancreatin; for half-life: porcine pancreatin. It is filed as in vitro ADME. An outline of the steps: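 Percent peptide remaining over time was measured by LC-MS/MS as the peak-area ratio to internal standard, and a first-order decay fit gave half-life. Digests contained 22 μM peptide and 1% pancreatin in pH 6.5 FaSSIF buffer at 37° C. Aliquots were quenched in organic solvent with formic acid.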

Broadly, the half-life is the time needed for the level to fall by half in the phase considered. Higher therefore signals slow decline.

pIC50: −log10 of the molar value. Where a SMILES comes first, the peptide text is derived from it.

`CC(C)C[C@@H]1NC(=O)[C@H]([C@@H](C)O)NC(=O)[C@H](CC(=O)O)NC(=O)[C@H](CO)NC(=O)[C@H](CCCNC(=N)N)N(C)C(=O)C(C)SC[C@@H](C(=O)N[C@@H](Cc2c[nH]c3ccccc23)C(=O)N[C@H](CCCCN)C(N)=O)NC1=O` (single isomer, unassigned) [compound 51]: the pIC50 on rh integrin α4β7 is 7.00 to 7.60. Moreover, the half-life at 22 μM in series [1] is 0.1 h.
The like results for `CC(C)C[C@@H]1NC(=O)[C@H]([C@@H](C)O)NC(=O)[C@H](CC(=O)O)NC(=O)[C@H](CO)NC(=O)[C@H](CCCNC(=N)N)N(C)C(=O)CSC(C)(C)[C@@H](C(=O)N[C@@H](Cc2c[nH]c3ccccc23)C(=O)N[C@H](CCCCN)C(N)=O)NC1=O` [compound 53] were, in that order, 6.00 to 7.00 and above 3 h.
On to `CC(C)C[C@@H]1NC(=O)[C@H]([C@@H](C)O)NC(=O)[C@H](CC(=O)O)NC(=O)[C@H](CO)NC(=O)[C@H](CCCNC(=N)N)N(C)C(=O)CCSCC[C@@H](C(=O)N[C@@H](Cc2c[nH]c3ccccc23)C(=O)N[C@H](CCCCN)C(N)=O)NC1=O` [compound 57], for which the pIC50 at rh integrin α4β7 was 6.00 to 7.00. In series [1], this molecule came in with a half-life below 0.333 h.
Take `CC(C)C[C@@H]1NC(=O)[C@H]([C@@H](C)O)NC(=O)[C@H](CC(=O)O)NC(=O)[C@H](CO)NC(=O)[C@H](CCCNC(=N)N)NC(=O)c2ccccc2CSC[C@@H](C(=O)N[C@@H](Cc2c[nH]c3ccccc23)C(=O)N[C@H](CCCCN)C(N)=O)NC1=O` [compound 59]: the pIC50 on rh integrin α4β7 is 6.00 to 7.00. Further, the half-life at 22 μM in series [1] is below 0.333 h.
For `CC(C)C[C@@H]1NC(=O)[C@H]([C@@H](C)O)NC(=O)[C@H](CC(=O)O)NC(=O)[C@H](CO)NC(=O)[C@H](CCCNC(=N)N)N(C)C(=O)c2ccccc2CSC(C)(C)[C@@H](C(=O)N[C@@H](Cc2c[nH]c3ccccc23)C(=O)N[C@@H](CCC(=O)O)CC(=O)N[C@H](CCCCN)C(N)=O)NC1=O` [compound 61] (HELM PEPTIDE1{[meR].S.D.T.L.[Pen].W.[O=C(O)CC[C@@H](CC(=O)[*:2])N[*:1]].[dK].[am]}|CHEM1{[O=C(c1ccccc1C[*:2])[*:1]]}$PEPTIDE1,CHEM1,1:R1-1:R1|PEPTIDE1,CHEM1,6:R3-1:R2$$$V2.0), in that order: above 7.60 and above 3 h.
For `CC(C)C[C@@H]1NC(=O)[C@H]([C@@H](C)O)NC(=O)[C@H](CC(=O)O)NC(=O)[C@H](CO)NC(=O)[C@H](CCCNC(=N)N)N(C)C(=O)c2ccccc2CSC(C)(C)[C@@H](C(=O)N[C@@H](Cc2c[nH]c3ccccc23)C(=O)N[C@@H](CCC(=O)O)C(=O)N(C)[C@H](CCCCN)C(N)=O)NC1=O` [compound 62] (HELM PEPTIDE1{[meR].S.D.T.L.[Pen].W.E.[CN([C@H](CCCCN)C(=O)[*:2])[*:1]].[am]}|CHEM1{[O=C(c1ccccc1C[*:2])[*:1]]}$PEPTIDE1,CHEM1,1:R1-1:R1|PEPTIDE1,CHEM1,6:R3-1:R2$$$V2.0), in that order: above 7.60 and above 3 h.
Consider `CC(C)C[C@@H]1NC(=O)[C@H]([C@@H](C)O)NC(=O)[C@H](CC(=O)O)NC(=O)[C@H](CO)NC(=O)[C@H](CCCNC(=N)N)N(C)C(=O)c2ccccc2CSC[C@H](C(=O)N[C@@H](Cc2c[nH]c3ccccc23)C(=O)N[C@@H](CCC(=O)O)CC(=O)N[C@H](CCCCN)C(N)=O)NC1=O` [compound 66] (HELM PEPTIDE1{[meR].S.D.T.L.[dC].W.[O=C(O)CC[C@@H](CC(=O)[*:2])N[*:1]].[dK].[am]}|CHEM1{[O=C(c1ccccc1C[*:2])[*:1]]}$PEPTIDE1,CHEM1,1:R1-1:R1|PEPTIDE1,CHEM1,6:R3-1:R2$$$V2.0), for which, at rh integrin α4β7, the pIC50 is 7.00 to 7.60. The half-life in series [1] was above 3 h.
The like results for `CC(C)C[C@@H]1NC(=O)[C@H]([C@@H](C)O)NC(=O)[C@H](CC(=O)O)NC(=O)[C@H](CO)NC(=O)[C@H](CCCNC(=N)N)N(C)C(=O)c2ccccc2CSCC[C@@H](C(=O)N[C@@H](Cc2c[nH]c3ccccc23)C(=O)N[C@@H](CCC(=O)O)C(=O)N[C@H](CCCCN)C(N)=O)NC1=O` [compound 67] (HELM PEPTIDE1{[meR].S.D.T.L.[O=C([C@H](CCS[*:3])N[*:1])[*:2]].W.E.[dK].[am]}|CHEM1{[O=C(c1ccccc1C[*:2])[*:1]]}$PEPTIDE1,CHEM1,1:R1-1:R1|PEPTIDE1,CHEM1,6:R3-1:R2$$$V2.0) were, in that order, above 7.60 and below 0.333 h.
With `CC(C)C[C@@H]1NC(=O)[C@H]([C@@H](C)O)NC(=O)[C@H](CC(=O)O)NC(=O)[C@H](CO)NC(=O)[C@H](CCCNC(=N)N)N(C)C(=O)c2ccccc2CSC(C)(C)[C@@H](C(=O)N[C@@H](Cc2cccc3ccccc23)C(=O)N[C@H](CCC(=O)O)C(=O)N[C@H](CCCCN)C(N)=O)NC1=O` [compound 68] (HELM PEPTIDE1{[meR].S.D.T.L.[Pen].[O=C([C@H](Cc1cccc2ccccc12)N[*:1])[*:2]].[dE].[dK].[am]}|CHEM1{[O=C(c1ccccc1C[*:2])[*:1]]}$PEPTIDE1,CHEM1,1:R1-1:R1|PEPTIDE1,CHEM1,6:R3-1:R2$$$V2.0), the pIC50 on rh integrin α4β7 is above 7.60. This molecule returned a half-life at 22 μM in series [1] above 3 h.
Turning to `CC(C)C[C@@H]1NC(=O)[C@H]([C@@H](C)O)NC(=O)[C@H](CC(=O)O)NC(=O)[C@H](CO)NC(=O)[C@H](CCCNC(=N)N)N(C)C(=O)c2ccccc2CSC(C)(C)[C@@H](C(=O)N[C@@H](Cc2c[nH]c3ccccc23)C(=O)N[C@H](CCC(=O)O)C(=O)N[C@H](Cc2c[nH]cn2)C(N)=O)NC1=O` [compound 109] (HELM PEPTIDE1{[meR].S.D.T.L.[Pen].W.[dE].[dH].[am]}|CHEM1{[O=C(c1ccccc1C[*:2])[*:1]]}$PEPTIDE1,CHEM1,1:R1-1:R1|PEPTIDE1,CHEM1,6:R3-1:R2$$$V2.0), the pIC50 at rh integrin α4β7 is above 7.60.
The same measure, in the same setting: in the case of `COC(=O)CC[C@H](NC(=O)[C@H](Cc1c[nH]c2ccccc12)NC(=O)[C@H]1NC(=O)[C@H](CC(C)C)NC(=O)[C@H]([C@@H](C)O)NC(=O)[C@H](CC(=O)O)NC(=O)[C@H](CO)NC(=O)[C@H](CCCNC(=N)N)N(C)C(=O)c2ccccc2CSC1(C)C)C(=O)N[C@H](CCCCN)C(N)=O` [compound 115] (HELM PEPTIDE1{[meR].S.D.T.L.[Pen].W.E.[dK].[am]}|CHEM1{[CO[*:1]]}|CHEM2{[O=C(c1ccccc1C[*:2])[*:1]]}$PEPTIDE1,CHEM1,8:R3-1:R1|PEPTIDE1,CHEM2,1:R1-1:R1|PEPTIDE1,CHEM2,6:R3-1:R2$$$V2.0) it was above 7.60.
